Test results from publication PMC7367283, “A PIP2 substitute mediates voltage sensor-pore coupling in KCNQ activation” (Communications Biology, 2020).

Target: T1, HCN4 (Homo sapiens, UniProt Q9Y3Q4)
T1 sequence (Q9Y3Q4 1-1203): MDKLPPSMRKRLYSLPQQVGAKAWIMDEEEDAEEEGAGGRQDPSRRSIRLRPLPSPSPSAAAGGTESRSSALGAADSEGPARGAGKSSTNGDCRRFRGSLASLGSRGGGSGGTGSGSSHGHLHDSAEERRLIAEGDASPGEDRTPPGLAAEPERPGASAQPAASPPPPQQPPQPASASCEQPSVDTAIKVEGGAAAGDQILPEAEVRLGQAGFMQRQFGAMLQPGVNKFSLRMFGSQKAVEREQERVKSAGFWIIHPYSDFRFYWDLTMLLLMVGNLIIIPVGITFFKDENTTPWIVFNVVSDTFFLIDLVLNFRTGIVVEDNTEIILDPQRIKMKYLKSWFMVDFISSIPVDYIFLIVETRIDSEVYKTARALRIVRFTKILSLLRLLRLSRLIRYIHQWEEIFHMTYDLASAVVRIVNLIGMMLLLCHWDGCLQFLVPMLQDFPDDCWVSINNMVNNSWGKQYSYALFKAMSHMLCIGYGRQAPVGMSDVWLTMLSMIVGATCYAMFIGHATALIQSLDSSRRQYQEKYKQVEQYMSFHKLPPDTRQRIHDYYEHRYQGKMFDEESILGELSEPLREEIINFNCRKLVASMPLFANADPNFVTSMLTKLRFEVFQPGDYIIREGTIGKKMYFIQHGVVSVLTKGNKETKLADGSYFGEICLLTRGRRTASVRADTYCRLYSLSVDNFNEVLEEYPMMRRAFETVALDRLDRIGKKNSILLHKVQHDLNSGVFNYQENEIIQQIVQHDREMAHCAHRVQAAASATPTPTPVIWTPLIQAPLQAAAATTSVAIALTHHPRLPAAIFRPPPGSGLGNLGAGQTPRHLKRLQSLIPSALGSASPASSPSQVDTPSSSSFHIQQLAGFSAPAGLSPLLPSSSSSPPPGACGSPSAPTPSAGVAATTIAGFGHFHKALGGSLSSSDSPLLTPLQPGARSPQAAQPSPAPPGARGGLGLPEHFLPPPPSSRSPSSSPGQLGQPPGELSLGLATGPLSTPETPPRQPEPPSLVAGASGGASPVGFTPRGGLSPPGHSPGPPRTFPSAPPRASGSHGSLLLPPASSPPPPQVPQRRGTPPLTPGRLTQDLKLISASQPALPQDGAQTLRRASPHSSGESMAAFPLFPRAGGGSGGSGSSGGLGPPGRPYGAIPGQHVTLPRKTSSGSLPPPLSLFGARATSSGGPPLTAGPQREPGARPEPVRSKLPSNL
Assay: Two-electrode voltage clamp of HCN4 in Xenopus oocytes
Assay type: cell-based
Details: 10 µM CP1
Source text: Since CP1 has a similar effect to PIP2 in mediating VSD-pore coupling in KCNQ channels, we tested if CP1 has effects on other ion channels that are also sensitive to PIP2 or are voltage activated and share general structural features of the VSD and the pore with KCNQ. […] On the other hand, NaV1.5 and KV4.2 are voltage-gated ion channels.
Fig. 6 Effects of CP1 on other ion channels expressed in Xenopus oocytes. a Currents of Kir1.1, CaV1.2, NaV1.5, hERG, and KV4.2 before and after application of 10 µM CP1, respectively. The voltages for holding, test, and returning pulses were Kir1.1, 0 mV, −100 to +60 mV, 0; CaV1.2, −100 mV, −100 to +60, −100 mV; NaV1.5, −100, −120 to +40 mV, −120 mV; hERG, −80 mV, −90 to +60 mV, −60 mV; KV4.2, −80 mV, −100 mV to +80 mV, −40 mV; HCN4, −30 mV, −30 to −140 mV, −120 mV. b Current–voltage relations of Kir1.1 channel in the absence or presence of 10 µM CP1 (n = 7). c–g G–V relations of indicated channels with and without 10 µM CP1. The ΔV1/2 of G–V relations (mV) are CaV1.2, 3.38 ± 0.71 mV (c); NaV1.5, −2.26 ± 0.95 mV (d); hERG, 6.85 ± 1.81 mV (e); KV 4.2, −2.26 ± 2.88 mV (f); HCN4, 17.13 ± 1.59 mV (g).
Complementary DNA (cDNA) encoding human KCNQ1 (UniProtKB/Swiss‐Prot under accession no. P51787), KCNQ2 (O43526), KCNQ3 (O43525), KCNE1 (P15382), Kir1.1 (P48048), hERG (Q12809), KV4.2 (Q63881), NaV1.5 (Q14524), NaV β1 (Q07699), CaV1.2 (Q13936), CaV β1a (Q02641), CaV α2/δ1 (P54289), and HCN4 (Q9Y3Q4) were subcloned into oocyte expression vectors, respectively. Site-directed mutations of the KCNQ1 channel were all produced by overlap extension polymerase chain reaction (PCR) with high-fidelity Pfu polymerase (Stratagene, CA). The presence of the desired mutation was verified by sequencing the PCR-amplified regions. All the primer sequences used in this study are available in Supplementary Table 1. The complementary RNA (cRNA) of all these channels and mutations was transcribed in vitro with the T3, T7, or SP6 polymerase mMessage mMachine kit (Invitrogen, Thermo Fisher Scientific, MO).
The whole-oocyte ionic currents were recorded with a GeneClamp 500B amplifier (Axon Instruments, CA) or iTEV90 amplifier (HEKA, Germany) and then sampled at 1 kHz and low-pass-filtered at 2 kHz. The Patchmaster software (HEKA, Germany) was used to acquire data. The Kir1.1 current was recorded with a high K^+ bath solution containing (in mM) 96 KCl, 4 NaCl, 1 CaCl2, 2 MgCl2, and 10 HEPES, pH 7.3–7.4. The HCN4 current was recorded in ND66 solution containing (in mM) 66 NaCl, 32 KCl, 1.8 CaCl2, 1 MgCl2, and 5 HEPES, pH 7.6. All the other potassium channels were recorded in ND96 solution. The currents of CaV1.2 channel were recorded in 40 mM Ba^2+ bath solution containing (in mM) 40 Ba(OH)2, 50 TEA-OH, 2 KOH, and 5 HEPES, adjusted to pH 7.4 with methanesulfonic acid. CP1 (DISODIUM 5-BROMO-2-[9-CHLORO-3-(SULFONATOOXY) NAPHTHO [1,2-B] THIEN-2-YL]-1H-INDOL-3-YL SULFATE, Sigma-Aldrich, MO) and Chromanol 293B (Sigma-Aldrich, MO) were dissolved in bath solutions. All the chemicals were purchased from Sigma-Aldrich. To measure the I–V relations of the Kir1.1 channel, the test voltage was set from −100 to +60 mV for 1 s with 20-mV increments. The test pulses were stepped from a holding potential of 0 mV and then stepped back to 0 mV. The HCN4 currents were recorded by a test pulse between −30 and −140 mV in 10-mV step from a holding potential of −30 mV. For all the other potassium channels and CaV1.2 channel, the holding potential was −80 or −100 mV, and the test pulse was applied with 10-mV increment, which was followed with a repolarization pulse at −40 mV before returning to the holding potential. The durations of test and the repolarization pulse vary for different channels to allow the activation and deactivation of the channel to reach their steady states.

SMILES: O=S(=O)([O-])Oc1c(-c2sc3c(ccc4cccc(Cl)c43)c2OS(=O)(=O)[O-])[nH]c2ccc(Br)cc12.[Na+].[Na+] [CP1, DISODIUM 5-BROMO-2-[9-CHLORO-3-(SULFONATOOXY) NAPHTHO [1,2-B] THIEN-2-YL]-1H-INDOL-3-YL SULFATE]
- ΔV1/2 of G–V relations: 17.13 ± 1.59 mV
- G/Gmax Mean (Fig. 6g) (voltage -30 mV): 0.0988
- G/Gmax Mean (Fig. 6g) (voltage -40 mV): 0.0945
- G/Gmax Mean (Fig. 6g) (voltage -50 mV): 0.1008
- G/Gmax Mean (Fig. 6g) (voltage -60 mV): 0.1162
- G/Gmax Mean (Fig. 6g) (voltage -70 mV): 0.1464
- G/Gmax Mean (Fig. 6g) (voltage -80 mV): 0.2025
- G/Gmax Mean (Fig. 6g) (voltage -90 mV): 0.2959
- G/Gmax Mean (Fig. 6g) (voltage -100 mV): 0.4355
- G/Gmax Mean (Fig. 6g) (voltage -110 mV): 0.6065
- G/Gmax Mean (Fig. 6g) (voltage -120 mV): 0.7756
- G/Gmax Mean (Fig. 6g) (voltage -130 mV): 0.9097
- G/Gmax Mean (Fig. 6g) (voltage -140 mV): 1.0000
